Measurements: patent US20150368248A1, “2-SUBSTITUTED-6-BIARYLMETHYLAMINO-9-CYCLOPENTYL-9H-PURINE DERIVATIVES, USE THEREOF AS MEDICAMENTS, AND PHARMACEUTICAL COMPOSITIONS” (UNIVERZITA PALACKEHO V OLOMOUCI, priority 2013, published 2015)
Read-outs that look alike come from different tables or passages of the source.

Legend:
[1] = tested on: p53-regulated transcription in Arn8 cells; assay: p53-dependent transcriptional activity, β-galactosidase reporter; format: cell-based; details: 24 h incubation
Experimental: Stronger anticancer activity of the compounds is enhanced by its positive impact on stability and activity of the tumour suppressor p53. To measure p53-dependent transcriptional activity, β-galactosidase activity was quantified in the melanoma cell line Arn8, which had been established using stable transfection of cells with a p53-responsive reporter construct pRGCAfoslacZ (Frebung et al., Cancer Res., 52, 1992-6976). Briefly, after 24 h incubation with the inhibitors the Arn8 cells were permeabilized with 0.3% Triton X-100 for 15 min and then 4-methylumbelliferon-β-D-galactopyranoside was added as a substrate to the final concentration of 80 μM. After 1 h the fluorescence of product 4-methylumbelliferon was measured at 355/460 nm (ex/em) with a Fluoroskan Ascent microplate reader (Labsystems). Data in Tab. 8 present that series of 2-substituted-6-biarylmethylamino-9-cyclopentyl-9H-purine derivatives show a dose-dependent activatory effect on p53-regulated transcription, with the maximum impact observed between 100 and 500 nM concentrations for most of prepared compounds (Tab. 8).

[2] = target: T1, CDK1/cyclin B (Homo sapiens, UniProt P06493); assay: Kinase inhibition assay, recombinant kinase, [γ-33P]ATP; format: biochemical
T1 construct: made in house; host or cells: Sf9 insect cells (baculovirus)
T1 sequence (P06493 whole entry, species assumed): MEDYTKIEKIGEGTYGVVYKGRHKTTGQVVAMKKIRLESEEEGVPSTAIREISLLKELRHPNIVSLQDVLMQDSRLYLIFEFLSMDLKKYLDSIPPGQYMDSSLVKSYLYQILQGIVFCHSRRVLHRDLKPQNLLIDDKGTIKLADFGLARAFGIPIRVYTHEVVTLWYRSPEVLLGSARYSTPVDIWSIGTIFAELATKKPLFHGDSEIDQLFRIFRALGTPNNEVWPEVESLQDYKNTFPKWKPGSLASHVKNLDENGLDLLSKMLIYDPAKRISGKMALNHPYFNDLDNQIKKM
T1 sequence (P14635 whole entry partner, species assumed): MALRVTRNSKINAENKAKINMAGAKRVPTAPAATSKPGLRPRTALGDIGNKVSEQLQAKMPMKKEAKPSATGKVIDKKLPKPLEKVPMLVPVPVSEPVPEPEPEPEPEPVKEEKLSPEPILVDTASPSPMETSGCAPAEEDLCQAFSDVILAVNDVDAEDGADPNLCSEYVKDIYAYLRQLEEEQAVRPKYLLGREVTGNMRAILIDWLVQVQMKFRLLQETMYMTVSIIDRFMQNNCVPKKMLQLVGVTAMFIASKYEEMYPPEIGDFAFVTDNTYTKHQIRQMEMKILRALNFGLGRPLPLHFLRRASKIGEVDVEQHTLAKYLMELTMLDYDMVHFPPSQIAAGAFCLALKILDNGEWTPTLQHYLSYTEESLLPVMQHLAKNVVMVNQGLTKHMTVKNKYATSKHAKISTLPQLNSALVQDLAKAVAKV
Experimental: CDK2/Cyclin E kinase was produced in Sf9 insect cells via baculoviral infection and purified on a NiNTA column (Qiagen). CDK5/p35, CDK7Cyclin H/MAT1 and CDK9/Cyclin T1 was purchased from ProQinase GmbH. […] The reactions were stopped by adding 5 μL of 3% aq H3PO4. Aliquots were spotted onto P-81 phosphocellulose (Whatman), washed 3× with 0.5% aq H3PO4 and finally air-dried.
CDK1/cyclin B and CDK2/cyclin E kinases were produced in Sf9 insect cells via baculoviral infection, while CDK5/p35, CDK7/cyclin H/MAT1, and CDK9/cyclin T1 were purchased from ProQinase (Freiburg, Germany) and assayed as described previously (35). The kinase reactions were assayed with 1 mg/ml histone H1 (for CDK2 and CDK5) or (YSPTSPS)2KK peptide (for CDK7 and CDK9) in the presence of 15/0.15/1.5/1.5 […] ATP (for CDK2/CDK5/CDK7CDK9), […] [γ-^33P]ATP and of the test compound in a final volume of […]. The reaction buffer contained 60 mM HEPES-NaOH, pH 7.5, 3 mM MgCl2, 3 mM MnCl2, 3 mM Na-orthovanadate, 1.2 mM DTT, 2.5 mg/50 ml PEG20.000. The reactions were stopped by adding […] of 3% H3PO4. Aliquots were spotted onto P-81 phosphocellulose (Whatman, GE Healthcare Biosciences, Pittsburgh, USA), washed 3 times with 0.5% H3PO4 and finally air-dried. Kinase inhibition was quantified using a FLA-7000 digital image analyzer (Fujifilm, Tokyo, Japan).

[3] = tested on: HepG2; assay: MTT cytotoxicity assay (Example 30); format: cell-based; details: Homo sapiens, HepG2, 72 h; MTT, three days after drug addition; read-out: Inhibitory concentration IC50, HepG2
From the text: Cytotoxicity of the compounds is the major property determining their anticancer effect in vivo. One of the parameters used, as the basis for cytotoxicity assays, is the metabolic activity of viable cells. For example, a microtiter assay, which uses (3-(4,5-Dimethylthiazol-2-yl)-2,5-diphenyltetrazolium bromide (MTT), is widely used to quantitate cell proliferation and cytotoxicity. For instance, this assay is used in drug screening programs and in chemosensitivity testing. Because only metabolically active living cells reduce MTT to correspond purple formazan dye, these assays detect viable cells exclusively. The quantity of reduced MTT corresponds to the number of vital cells in the culture.
(§1) We have been using the following cell lines: HUH-7 and PLC/PRF/5 cell lines were maintained in DMEM supplemented with 10% fetal bovine serum, penicillin (100 U/ml) and streptomycin (100 μg/ml). Unique HCC-1.2 (3p) and HCC-1.1 (3sp) cell lines (Zilj et al., 2009, Future Oncol, 5(8):1169-79) and Hep3B cells were cultivated in RPMI supplemented with 10% fetal bovine serum, penicillin (100 U/ml) and streptomycin (100 μg/ml). HepG2 cell line was maintained in EMEM supplemented with 10% fetal bovine serum, sodium pyruvate (0.11 g/1), penicillin (100 U/ml) and streptomycin (100 μg/ml). All cell lines were cultivated at 37° C. in 5% CO2. For cytotoxicity assays, 3000 cells (10000 cells in case of HepG2 cell line) were seeded into each well of 96 well plate and the next day tested compounds were added at various concentrations in triplicates. Three days after drug addition MTT stock solution (5 mg/ml) was added into each well and incubated for 4 h. After this incubation period, produced formazan was dissolved by DMSO and final absorbance was measured at 570 nm with Synergy H4 Hybrid Multi-Mode Microplate Reader.

[4] = tested on: HCC-1.1 (3sp); assay: MTT cytotoxicity assay (Example 30); format: cell-based; details: Homo sapiens, 72 h; MTT, three days after drug addition; read-out: Inhibitory concentration IC50, 3sp
Experimental: (§2) Cytotoxicity of the compounds is the major property determining their anticancer effect in vivo. One of the parameters used, as the basis for cytotoxicity assays, is the metabolic activity of viable cells.
as §1, with “Unique HCC-1.2 (3p) and HCC-1.1 (3sp) cell lines (Zilj et al., 2009, Future Oncol, 5(8):1169-79) and Hep3B cells were cultivated in RPMI supplemented with 10% fetal bovine serum, penicillin (100 U/ml) and streptomycin (100 μg/ml).” left out

[5] = tested on: HCC-1.2 (3p); assay: MTT cytotoxicity assay (Example 30); format: cell-based; details: Homo sapiens, HCC-1.2, 72 h; MTT, three days after drug addition; read-out: Inhibitory concentration IC50, 3p
Experimental: as §2
as §1, with “Unique HCC-1.2 (3p) and HCC-1.1 (3sp) cell lines (Zilj et al., 2009, Future Oncol, 5(8):1169-79) and Hep3B cells were cultivated in RPMI supplemented with 10% fetal bovine serum, penicillin (100 U/ml) and streptomycin (100 μg/ml).” left out

[6] = tested on: HUH-7; assay: MTT cytotoxicity assay (Example 30); format: cell-based; details: Homo sapiens, Huh-7, 72 h; MTT, three days after drug addition; read-out: Inhibitory concentration IC50, HUH-7
Experimental: as §2
as §1, with “Unique HCC-1.2 (3p) and HCC-1.1 (3sp) cell lines (Zilj et al., 2009, Future Oncol, 5(8):1169-79) and Hep3B cells were cultivated in RPMI supplemented with 10% fetal bovine serum, penicillin (100 U/ml) and streptomycin (100 μg/ml).” left out

[7] = tested on: PLC/PRF/5; assay: MTT cytotoxicity assay (Example 30); format: cell-based; details: Homo sapiens, PLC-PRF-5, 72 h; MTT, three days after drug addition; read-out: Inhibitory concentration IC50, PLC/PRF/5
Experimental: as §2
as §1, with “Unique HCC-1.2 (3p) and HCC-1.1 (3sp) cell lines (Zilj et al., 2009, Future Oncol, 5(8):1169-79) and Hep3B cells were cultivated in RPMI supplemented with 10% fetal bovine serum, penicillin (100 U/ml) and streptomycin (100 μg/ml).” left out

[8] = read-out: Kinase inhibition IC50, CDK1

SMILES	melting point	Concentration of maximum activation [1]	IC50 [2, 8]	IC50 [3]	IC50 [4]	IC50 [5]	IC50 [6]	IC50 [7]	IC50 ([2]; Table 12, read-out: IC50, CDK1/cyklin B)
NC1CCC(Nc2nc(NCc3ccc(-c4cccc(F)c4)cc3)c3ncn(C4CCCC4)c3n2)CC1 (stereo not drawn) [BP12, N^2-(4-amino-cyclohexyl)-9-cyclopentyl-N^6-(3′-fluoro-biphenyl-4-ylmethyl)-9H-purine-2,6-diamine]	146 to 148 °C	986 nM	422 nM	248 nM	492 nM	288 nM	199 nM	77 nM	–
Nc1ccccc1-c1ccc(CNc2nc(NC3CCC(N)CC3)nc3c2ncn3C2CCCC2)cc1 (stereo not drawn) [BP32, N^2-(4-amino-cyclohexyl)-9-cyclopentyl-N^6-(2′-amino-biphenyl-4-ylmethyl)-9H-purine-2,6-diamine]	168 to 170 °C	895 nM	152 nM	> 1000 nM	687 nM	543 nM	647 nM	122 nM	–
NC1CCC(Nc2nc(NCc3ccc(-c4ccsc4)cc3)c3ncn(C4CCCC4)c3n2)CC1 (stereo not drawn) [BP5, N^2-(4-amino-cyclohexyl)-9-cyclopentyl-N^6-(4-thiophen-3-yl-benzyl)-9H-purine-2,6-diamine]	114 to 118 °C	961 nM	183 nM	247 nM	454 nM	420 nM	231 nM	60 nM	–
COc1ccccc1-c1ccc(CNc2nc(NC3CCC(N)CC3)nc3c2ncn3C2CCCC2)cc1 (stereo not drawn) [BP16, N^2-(4-amino-cyclohexyl)-9-cyclopentyl-N^6-(2′-methoxy-biphenyl-4-ylmethyl)-9H-purine-2,6-diamine]	178 to 180 °C	943 nM	301 nM	937 nM	767 nM	580 nM	363 nM	129 nM	–
NC1CCC(Nc2nc(NCc3ccc(-c4cccs4)nc3)c3ncn(C4CCCC4)c3n2)CC1 (stereo not drawn) [BP30, N^2-(4-amino-cyclohexyl)-9-cyclopentyl-N^6-(6-thiophen-2-yl-pyridin-3-ylmethyl)-9H-purine-2,6-diamine]	151 to 153 °C	120 nM	49 nM	206 nM	476 nM	205 nM	184 nM	15 nM	–
NC1CCC(Nc2nc(NCc3ccc(-c4ccsc4)nc3)c3ncn(C4CCCC4)c3n2)CC1 (stereo not drawn) [BP35, N^2-(4-amino-cyclohexyl)-9-cyclopentyl-N^6-(6-thiophen-3-yl-pyridin-3-ylmethyl)-9H-purine-2,6-diamine]	139 to 140 °C	230 nM	169 nM	278 nM	328 nM	218 nM	257 nM	37 nM	–
NC1CCC(Nc2nc(NCc3ccc(-c4ccoc4)cc3)c3ncn(C4CCCC4)c3n2)CC1 (stereo not drawn) [BP13, N^2-(4-amino-cyclohexyl)-9-cyclopentyl-N^6-(4-furan-3-yl-benzyl)-9H-purine-2,6-diamine]	154 to 156 °C	970 nM	202 nM	256 nM	613 nM	602 nM	339 nM	76 nM	–
NC1CCC(Nc2nc(NCc3ccc(-c4ccccc4O)nc3)c3ncn(C4CCCC4)c3n2)CC1 (stereo not drawn) [BP20, N^2-(4-amino-cyclohexyl)-9-cyclopentyl-N^6-[6-(2-hydroxy-phenyl)-pyridin-3-ylmethyl]-9H-purine-2,6-diamine]	202 to 203 °C	150 nM	47 nM	68 nM	197 nM	132 nM	182 nM	7 nM	–
NC1CCC(Nc2nc(NCc3ccc(-c4ccco4)nc3)c3ncn(C4CCCC4)c3n2)CC1 (stereo not drawn) [BP14, N^2-(4-amino-cyclohexyl)-9-cyclopentyl-N^6-(6-furan-2-yl-pyridin-3-ylmethyl)-9H-purine-2,6-diamine]	–	137 nM	50 nM	211 nM	513 nM	410 nM	373 nM	7 nM	50 nM
